What is called solubility is the concentration that dissolves in the medium under given conditions.

Where two headings read alike, the source gives them in different places.

We go through one molecule from patent publication US10406127B2, “Solid oral formulation of fenretinide” (LAURENT PHARMACEUTICALS, priority 2014, dated 2019).

Series [1] can be described thus: Solubility in spray-drying solvents (visually assessed). In kind it is physicochemical. From the text: The solubility of Fenretinide/PVP K30 40/60% w/w mixtures was first visually assessed in various ratios of ethanol/dichloromethane. Thereafter, Spray Dryed Intermediates (SDIs) were produced from Fenretinide/PVP K30 40/60% w/w mixture solubilized at 7.5% w/v in ethanol/dichloromethane 90/10 v/v (L215-01009A), 50/50 v/v (L215-01009B) and 10/90 v/v (L215-01009C) systems for a total batch size of 15 g. The solvent was evaporated using Model GA32 Yamato® Lab Spray Dryer with the following operating parameters: 1.2 mm nozzle; about 9-15 g/min feed rate; 1.5 kg/cm^2 atomization air, and 0.35-0.55 m^3/min air flow. The inlet temperature was adjusted according to the solvent system to maintain an outlet temperature between 50-65° C.
Successive amounts of Fenretinide and PVP K30 40/60% w/w were added in 200 ml of dichloromethane until saturation of the solution. At a total solid loading of 20% w/v (40 g), the addition of Fenretinide and PVP K30 was stopped due to the increase of the solution viscosity. The solution was spray dried (lot L215-01010) with the following process parameters: 11-15 g/min feed rate; 75° C. inlet temperature; 45-48° C. outlet temperature; 0.1-0.3 MPa atomization air, and 0.40 m^3/min air flow.

For series [2] the following is noted: fenretinide in rats; cited from earlier work.

Consider `CC1=C(/C=C/C(C)=C/C=C/C(C)=C/C(=O)Nc2ccc(O)cc2)C(C)(C)CCC1` [Fenretinide, all-trans-N-(4-hydroxyphenyl) retinamide], for which the solubility in series [1] (dichloromethane 100% with PVP K30, organic solvent or mixture, thermodynamic from solid, solubilised with PVP K30 in a ratio of 40/60 w/w, DCM 100%, read-out: solubility of Fenretinide) is over 50 mg/mL; in series [1] (ethanol 100% with PVP K30, organic solvent or mixture, thermodynamic from solid, solubilised with PVP K30 in a ratio of 40/60 w/w, ethanol 100%, read-out: solubility of Fenretinide) it was about 34 mg/mL; in series [1] (ethanol/dichloromethane 50/50 v/v with PVP K30, organic solvent or mixture, thermodynamic from solid, solubilised with PVP K30 in a ratio of 40/60 w/w, ethanol/DCM 50/50 v/v, read-out: solubility of Fenretinide), over 50 mg/mL; in series [1] (mixture of methanol/dichloromethane (1:1)), “very soluble”; in series [1] (pure dichloromethane), “very soluble”. The “elimination half-life, literature data” value in series [2] is 7 to 10 h.
